According to patent US4371464A, “Dipeptide sweetener” (Stamicarbon, B.V., priority 1980, dated 1983):

Test: organoleptic research (sweetness compared with sucrose)
Details: reference sucrose

COC(=O)[C@@H](NC(=O)[C@H](CC(=O)O)NC(=O)NC=O)c1ccccc1 [II, N-(N'-formyl)-carbamyl-L-alpha-aspartyl-L-phenylglycinemethylester]
sweetness relative to sucrose: 200 times sweeter than sucrose
